For data set [1], the species on record is Homo sapiens. The data set is described as follows: Liver toxicity in human assessed as induction of drug-induced liver injury by measuring verified drug-induced liver injury concern status.
The species entered for data set [2] is Homo sapiens. The data set is described as follows: Liver toxicity in human assessed as induction of drug-induced liver injury by measuring severity class index.
For DILI severity class in this document: key of the grades not given here.

On to `Nc1ncn([C@@H]2O[C@H](CO)[C@@H](O)[C@H]2O)c(=O)n1` [AZACITIDINE], for which the DILI_Concern entry in data set [1] is on record as “Ambiguous-Dili-Concern”. Moreover, the DILI_severity_class in data set [2] stood at 8.
For `CC(CCc1ccccc1)NCC(O)c1ccc(O)c(C(N)=O)c1` (centres undefined) [LABETALOL], the DILI_Concern result in data set [1] is “Most-Dili-Concern”. The DILI_severity_class in data set [2] is listed as 8.
Regarding `CN1[C@@H]2C[C@@H](OC(=O)[C@H](CO)c3ccccc3)C[C@H]1[C@@H]1O[C@@H]12` [SCOPOLAMINE], the DILI_Concern result in data set [1] is “No-Dili-Concern”. Moreover, the DILI_severity_class in data set [2] is listed as 0.
With `CC(=O)NCCCS(=O)(=O)O` [ACAMPROSATE], the DILI_Concern result in data set [1] is on record as “Less-Dili-Concern”. For the same molecule, the DILI_severity_class in data set [2] came out at 3.
On to `CN(C)CCOC(c1ccc(Cl)cc1)c1ccccn1` (centres undefined) [CARBINOXAMINE], for which the DILI_Concern entry in data set [1] was “No-Dili-Concern”. The DILI_severity_class in data set [2] is 0.
As to `CN1CCN(C(c2ccccc2)c2ccc(Cl)cc2)CC1` (centres undefined) [CHLORCYCLIZINE], the DILI_Concern entry in data set [1] was “Less-Dili-Concern”. In addition, the DILI_severity_class in data set [2] was determined as 0.
With `CO/N=C(\C(=O)N[C@@H]1C(=O)N2C(C(=O)O)=C(CSc3nc(=O)c(=O)[nH]n3C)CS[C@H]12)c1csc(N)n1` [CEFTRIAXONE], in data set [1], the DILI_Concern result is reported as “Less-Dili-Concern”. For the same molecule, the DILI_severity_class in data set [2] worked out at 4.
Take `CC(NN)c1ccccc1` (centres undefined) [MEBANAZINE]: the DILI_Concern result in data set [1] is reported as “Most-Dili-Concern”. In data set [2], the DILI_severity_class is 8.
On to `COc1cccc(C2(O)CCCCC2CN(C)C)c1` (centres undefined) [TRAMADOL], for which, in data set [1], the DILI_Concern entry is reported as “Ambiguous-Dili-Concern”. Moreover, the DILI_severity_class in data set [2] is on record as 7.
Turning to `CCCc1nn(C)c2c(=O)[nH]c(-c3cc(S(=O)(=O)N4CCN(C)CC4)ccc3OCC)nc12`, the DILI_Concern result in data set [1] is on record as “Less-Dili-Concern”. Moreover, the DILI_severity_class in data set [2] came out at 3.
As for `Cc1ccc(C(=O)c2ccc(CC(=O)O)n2C)cc1` [TOLMETIN], in data set [1], the DILI_Concern entry is recorded as “Less-Dili-Concern”. Further, in data set [2], the DILI_severity_class was found to be 3.
On to `CC1CNc2c(cccc2S(=O)(=O)N[C@@H](CCCNC(=N)N)C(=O)N2CC[C@@H](C)C[C@@H]2C(=O)O)C1` (some centres undefined) [ARGATROBAN], for which the DILI_Concern entry in data set [1] is reported as “No-Dili-Concern”. Further, in data set [2], the DILI_severity_class came out at 0.
Consider `CN[C@@H](C)Cc1ccccc1` [METHAMPHETAMINE], for which the DILI_Concern entry in data set [1] was “No-Dili-Concern”. In addition, in data set [2], the DILI_severity_class is recorded as 0.
For the molecule `CN(C)CCc1c[nH]c2ccc(Cn3cncn3)cc12` [RIZATRIPTAN], in data set [1], the DILI_Concern result is “No-Dili-Concern”. In addition, the DILI_severity_class in data set [2] was 0.
Regarding `CC(=O)N1CCN(c2ccc(OCC3COC(Cn4ccnc4)(c4ccc(Cl)cc4Cl)O3)cc2)CC1` (centres undefined) [KETOCONAZOLE], in data set [1], the DILI_Concern result was “Most-Dili-Concern”. For the same molecule, the DILI_severity_class in data set [2] worked out at 8.
As for `C=C[C@H]1C[N@@]2CC[C@H]1C[C@H]2[C@H](O)c1ccnc2ccc(OC)cc12` [QUININE], the DILI_Concern result in data set [1] is “Less-Dili-Concern”. Also, the DILI_severity_class in data set [2] is recorded as 3.
As to `CC1=NS(=O)(=O)c2cc(Cl)ccc2N1` [DIAZOXIDE], in data set [1], the DILI_Concern result is recorded as “Ambiguous-Dili-Concern”. Besides, in data set [2], the DILI_severity_class was 3.
With `CC(C)(C(=O)c1cccnc1)c1cccnc1` [METYRAPONE], in data set [1], the DILI_Concern entry was “No-Dili-Concern”. Also, the DILI_severity_class in data set [2] was 0.
For `CNNCc1ccc(C(=O)NC(C)C)cc1` [PROCARBAZINE], the DILI_Concern result in data set [1] is reported as “Less-Dili-Concern”. For the same molecule, the DILI_severity_class in data set [2] turned out to be 3.
For the molecule `C[N+]1(C)CCC(OC(=O)C(O)(c2ccccc2)C2CCCC2)C1` (centres undefined) [GLYCOPYRRONIUM], in data set [1], the DILI_Concern entry is recorded as “No-Dili-Concern”. The DILI_severity_class in data set [2] amounted to 0.
As to `CCCCC(F)(F)[C@@]1(O)CC[C@H]2[C@@H](CC(=O)[C@@H]2CCCCCCC(=O)O)O1` [LUBIPROSTONE], in data set [1], the DILI_Concern result is listed as “No-Dili-Concern”. Also, in data set [2], the DILI_severity_class is 0.
For the molecule `COc1cc2nc(N3CCN(C(=O)c4ccco4)CC3)nc(N)c2cc1OC` [PRAZOSIN], the DILI_Concern entry in data set [1] is given as “Ambiguous-Dili-Concern”. The DILI_severity_class in data set [2] is reported as 3.
On to `O=[N+]([O-])OCC(CO[N+](=O)[O-])O[N+](=O)[O-]` [NITROGLYCERIN], for which the DILI_Concern entry in data set [1] is on record as “No-Dili-Concern”. Besides, in data set [2], the DILI_severity_class worked out at 0.
In the case of `CCC(=O)O[C@@H](O[P@](=O)(CCCCc1ccccc1)CC(=O)N1C[C@H](C2CCCCC2)C[C@H]1C(=O)O)C(C)C` [FOSINOPRIL], in data set [1], the DILI_Concern result is given as “Less-Dili-Concern”. Also, the DILI_severity_class in data set [2] was 3.
On the same counts, the results for `Cc1ncc(CO)c(CO)c1O` [PYRIDOXINE] are “No-Dili-Concern” and 0.
As for `C=CC[N+]1([C@H]2C[C@H]3[C@@H]4CC[C@H]5C[C@H](O)C(N6CCOCC6)C[C@]5(C)[C@H]4CC[C@]3(C)[C@H]2OC(C)=O)CCCC1` (some centres undefined), in data set [1], the DILI_Concern result is recorded as “No-Dili-Concern”. In addition, the DILI_severity_class in data set [2] is on record as 0.
Take `CC(c1cc2ccccc2s1)N(O)C(N)=O` (centres undefined) [ZILEUTON]: the DILI_Concern result in data set [1] is “Most-Dili-Concern”. Also, the DILI_severity_class in data set [2] was 5.
Regarding `Nc1cccc2c1CN(C1CCC(=O)NC1=O)C2=O` (centres undefined) [LENALIDOMIDE], the DILI_Concern entry in data set [1] is given as “Less-Dili-Concern”. For the same molecule, the DILI_severity_class in data set [2] is given as 3.
On the same counts, the results for `C[C@]12C=CC(=O)N[C@@H]1CC[C@@H]1[C@@H]2CC[C@]2(C)[C@@H](C(=O)Nc3cc(C(F)(F)F)ccc3C(F)(F)F)CC[C@@H]12` [DUTASTERIDE] are “No-Dili-Concern” and 0.
With `CC(=O)O[C@H]1C[C@@H]2CC[C@@H]3[C@H](CC[C@@]4(C)[C@H]3C[C@H]([N+]3(C)CCCCC3)[C@@H]4OC(C)=O)[C@@]2(C)C[C@@H]1N1CCCCC1` [VECURONIUM], the DILI_Concern result in data set [1] is on record as “No-Dili-Concern”. In addition, the DILI_severity_class in data set [2] is reported as 0.
On to `NCC(CC(=O)O)c1ccc(Cl)cc1` (centres undefined) [BACLOFEN], for which the DILI_Concern entry in data set [1] is “Less-Dili-Concern”. Also, the DILI_severity_class in data set [2] is reported as 3.
As to `CC(NC(C)(C)C)C(=O)c1cccc(Cl)c1` (centres undefined) [BUPROPION], in data set [1], the DILI_Concern result is recorded as “Less-Dili-Concern”. The DILI_severity_class in data set [2] came out at 5.
Turning to `Nc1nc(Cl)nc2c1ncn2[C@H]1C[C@H](O)[C@@H](CO)O1` [CLADRIBINE], the DILI_Concern result in data set [1] is “Ambiguous-Dili-Concern”. Besides, the DILI_severity_class in data set [2] was 3.
Turning to `CN1C(=O)CN=C(c2ccccc2)c2cc(Cl)ccc21` [DIAZEPAM], the DILI_Concern result in data set [1] is “Ambiguous-Dili-Concern”. Further, in data set [2], the DILI_severity_class is given as 4.
Consider `O=C(c1ccccc1)c1ccc2n1CCC2C(=O)O` (centres undefined) [KETOROLAC], for which the DILI_Concern entry in data set [1] is on record as “Less-Dili-Concern”. Besides, the DILI_severity_class in data set [2] was 3.
Turning to `C[C@H](CCC(=O)O)[C@H]1CC[C@H]2[C@@H]3[C@H](O)C[C@@H]4C[C@H](O)CC[C@]4(C)[C@H]3CC[C@]12C` [CHENODIOL], the DILI_Concern result in data set [1] is listed as “Ambiguous-Dili-Concern”. The DILI_severity_class in data set [2] came to 8.
Consider `CC1=C(CCC(=O)O)c2cc3[nH]c(cc4[nH]c(cc5nc(cc1n2)C(C)=C5C(C)OC(C)c1c(C)c2cc5nc(cc6nc(cc7[nH]c(cc1[nH]2)c(C)c7CCC(=O)O)C(CCC(=O)O)=C6C)C(C(C)O)=C5C)c(C)c4C(C)O)c(C)c3CCC(=O)O` (centres undefined), for which the DILI_Concern entry in data set [1] is given as “No-Dili-Concern”. Besides, the DILI_severity_class in data set [2] was 0.
`O=C(O[C@H]1C[C@H]2CC[C@@H](C1)[N+]21CCCC1)C(O)(c1ccccc1)c1ccccc1.[Cl-]` [TROSPIUM CHLORIDE]: the DILI_Concern entry in data set [1] is recorded as “No-Dili-Concern”. The DILI_severity_class in data set [2] was 0.
Consider `Cc1ccc(N(CC2=NCCN2)c2cccc(O)c2)cc1` [PHENTOLAMINE], for which the DILI_Concern entry in data set [1] was “No-Dili-Concern”. The DILI_severity_class in data set [2] is recorded as 0.
`CC(=O)/N=c1/sc(S(N)(=O)=O)nn1C` [METHAZOLAMIDE]: in data set [1], the DILI_Concern result is “Less-Dili-Concern”. The DILI_severity_class in data set [2] was determined as 7.
Consider `O=C(Oc1ccccc1C(=O)O)c1ccccc1O` [SALSALATE], for which, in data set [1], the DILI_Concern entry is reported as “Less-Dili-Concern”. For the same molecule, in data set [2], the DILI_severity_class came to 3.
On the same counts, the results for `COC(=O)C(c1ccccc1)C1CCCCN1` (centres undefined) [METHYLPHENIDATE] are “Less-Dili-Concern” and 3.
Taken in the same sequence, the figures for `Cc1c(-c2ccccc2)oc2c(C(=O)OCCN3CCCCC3)cccc2c1=O` [FLAVOXATE] were “No-Dili-Concern” and 0.
Take `O=C(O)COc1nn(Cc2ccccc2)c2ccccc12` [BENDAZAC]: the DILI_Concern result in data set [1] is listed as “Most-Dili-Concern”. Also, in data set [2], the DILI_severity_class was found to be 8.
Regarding `CN1CC[C@]23c4c5ccc(O)c4O[C@H]2C(=O)CC[C@@]3(O)[C@H]1C5` [OXYMORPHONE], the DILI_Concern entry in data set [1] is on record as “No-Dili-Concern”. For the same molecule, the DILI_severity_class in data set [2] turned out to be 0.
Consider `Oc1ccc(C2CNCCc3c2cc(O)c(O)c3Cl)cc1` (centres undefined) [FENOLDOPAM], for which, in data set [1], the DILI_Concern result is recorded as “No-Dili-Concern”. In addition, in data set [2], the DILI_severity_class is recorded as 0.
Turning to `OCCOCCN1CCN(C2=Nc3ccccc3Sc3ccccc32)CC1` [QUETIAPINE], the DILI_Concern entry in data set [1] is “Less-Dili-Concern”. The DILI_severity_class in data set [2] was found to be 3.
Regarding `O=c1[nH]cc(F)c(=O)[nH]1` [FLUOROURACIL], the DILI_Concern result in data set [1] was “Less-Dili-Concern”. Also, in data set [2], the DILI_severity_class came to 0.
For `Cc1cccc(Nc2ccccc2C(=O)O)c1C` [MEFENAMIC ACID], in data set [1], the DILI_Concern result is recorded as “Most-Dili-Concern”. The DILI_severity_class in data set [2] turned out to be 8.
As for `CO[C@H]1/C=C/O[C@@]2(C)Oc3c(C)c(O)c4c(c3C2=O)C2=NC3(CCN(CC(C)C)CC3)NC2=C(NC(=O)/C(C)=C\C=C\[C@H](C)[C@H](O)[C@@H](C)[C@@H](O)[C@@H](C)[C@H](OC(C)=O)[C@@H]1C)C4=O` [RIFABUTIN], the DILI_Concern entry in data set [1] is listed as “Less-Dili-Concern”. For the same molecule, the DILI_severity_class in data set [2] is recorded as 5.
Regarding `CCN(CC)CCCC(C)Nc1ccnc2cc(Cl)ccc12` (centres undefined) [CHLOROQUINE], in data set [1], the DILI_Concern entry is listed as “Less-Dili-Concern”. Further, in data set [2], the DILI_severity_class amounted to 3.
On to `O=C(NCC(O)CO)c1c(I)c(C(=O)NCC(O)CO)c(I)c(N(CCO)C(=O)CO)c1I` (centres undefined) [IOVERSOL], for which the DILI_Concern entry in data set [1] is listed as “No-Dili-Concern”. Moreover, in data set [2], the DILI_severity_class is listed as 0.

The record behind these values is ChEMBL document CHEMBL4028802, “DILIrank: the largest reference drug list ranked by the risk for developing drug-induced liver injury in humans” (Drug Discov Today, 2016).
